Results from PMC8145938, “Triphenilphosphonium Analogs of Chloramphenicol as Dual-Acting Antimicrobial and Antiproliferating Agents” (Antibiotics, 2021).

Legend:
[1] = test system: E. coli BW25113 ΔtolC pDualrep2 reporter strain; test: pDualrep2 double fluorescent reporter assay on agar plate; type: cell-based; details: for inhibition of cell growth (inhibition zone) of the reporter strain: 10 mM, 1.5 μL spotted on agar lawn; for induction of reporters (Katushka2S: ribosome stalling; RFP: DNA damage): compound spotted on agar lawn, overnight 37 °C
Description: Next, we tested the effects of CAM-C10-TPP and CAM-C14-TPP in bacterial cells using an E. coli ∆tolC-based reporter system, which is designed to screen inhibitors targeting either protein synthesis or DNA replication. In this reporter system, the gene of the far-red fluorescent protein, katushka2S, is inserted downstream of the genetically modified tryptophan attenuator, making it possible to express Katushka2S only upon exposure to ribosome-stalling compounds (Figure 2B, CHL and ERY, red pseudocolor rings).
Reporter strain […] [71] ΔtolC (BW25113) pDualrep2 was used, as previously described. The tested antibiotics, CAM-C10-TPP (10 mM, 1.5 μL), CAM-C14-TPP (10 mM, 1.5 μL), C10-TPP (10 mM, 1.5 μL), C14-TPP (10 mM, 1.5 μL), CAM (10 mM, 1.5 μL), CAM-Ac (10 mM, 1.5 μL), chloramphenicol (CHL, 2 mM, 1 μL), erythromycin (Ery, 7 mM, 1 μL), and levofloxacin (Lev, 70 nM, 1 μL), were applied to an agar plate that already contained a lawn of the reporter strain. After being incubated overnight at 37 °C, the plate was scanned by ChemiDoc (Bio-Rad) in the modes, “Cy3-blot” for RFP and “Cy5-blot” for Katushka2S.

[2] = test system: Listeria monocytogenes; test: MIC determination, broth microdilution; type: cell-based
Description: (§1) Standard laboratory strains of Bacillus subtilis subs. subtilis Cohn 1872, stains BR151, and 168, Staphylococcus aureus subsp. aureus Rosenbach 1884 strains JCM 2151 and entry MC#144 (from the Microorganisms Collection of the Moscow State University), Listeria monocytogenes Pirie 1940, Mycobacterium smegmatis Lehmann and Neumann 1899 (MC#377), and Escherichia coli Castellani and Chalmers 1919, strain JW5503 (with the deletion of tolC gene), which are resistant to the chloramphenicol strains, J53rif, C600rif/pIB55-1, C600rif/pIP162-1, and C600recA naI, were used.
(§2) S. aureus was grown in Bacto Tryptic Soy Broth, L. monocytogenes in Brain Heart Infusion Broth, and E. coli in LB. Bacterial cells were grown at 30 °C or 37 °C in the appropriate medium at a 140 rpm shaking frequency.
(§3) The MICs for CAM-Cn-TPP and Cn-TPP were determined by Mueller-Hinton broth microdilution, as recommended by CLSI in the Methods for Dilution Antimicrobial Susceptibility Tests for Bacteria that Grow Aerobically, Approved Standard, 9th ed., CLSI document M07-A9, using in-house-prepared panels. The compounds were diluted in a 96-well microtiter plate to final concentrations ranging from 0.5 to 360 μM in a 250-µL aliquot of the bacterial suspension, followed by incubation at 37 °C or 30 °C for 18 h. […] The bacterial growth was observed visually alongside OD measurements. The experiments were carried out in triplicate.

[3] = test system: Staphylococcus aureus; test: MIC determination, broth microdilution; type: cell-based
Description: as §1, §2, §3

[4] = test system: Bacillus subtilis; test: MIC determination, broth microdilution; type: cell-based
Description: as §1, §3

[5] = test system: Mycobacterium smegmatis; test: MIC determination, broth microdilution; type: cell-based; details: Mycolicibacterium smegmatis
Description: as §1, §3

[6] = test system: E. coli ∆tolC-CAT; test: MIC determination, broth microdilution; type: cell-based; details: Escherichia coli
Method: (§4) E. coli ∆tolC CHL-resistant strain harboring plasmid encoding for chloramphenicol acetyltransferase (cat) (pCA24N-LacZ) and the control E. coli ∆tolC strain was used to evaluate the inhibitory effect of the compounds. CHL-resistant strains of B. subtilis pHT01-cat and B. subtilis pHT01-cfr were prepared by means of a transformation of a B. subtilis 168 strain with plasmids harboring the cat and cfr genes (chloramphenicol-florfenicol resistance) gene. The cfr gene encodes for the methyltransferase, which catalyzes the methylation of […] in the 23S rRNA and causes resistance to a variety of ribosome-targeting antibiotics that bind in the A site of the bacterial ribosome.
(§5) A standard laboratory strain of E. coli JW5503, with the deletion of the tolC gene, referred to here as the ∆tolC strain, was used to obtain the ∆tolC pCA24N-LacZ strain by means of transformation with the plasmid pCA24N-LacZ-harboring chloramphenicol acetyltransferase (cat) gene.
as §3

[7] = test system: E. coli ∆tolC; test: MIC determination, broth microdilution; type: cell-based; details: Escherichia coli
Method: as §4, §5, §3

[8] = test system: B. subtilis pHT01-cat; test: MIC determination, broth microdilution; type: cell-based; details: Bacillus subtilis, PHT01CAT
Method: as §4
(§6) A standard laboratory strain of B. subtilis 168 was used to obtain the CHL-resistant strains, B. subtilis pHT01-CAT and B. subtilis pHT01-cfr, by means of transformation with the corresponding plasmids. Competent cell preparation and transformation procedures were conducted, as reported in [74, 75]. The desired colonies were selected at 10 µg/mL of CHL for B. subtilis pHT01 and 5 µg/mL or 3.2 µg/mL of CHL for B. subtilis pHT01-cfr.
as §3

[9] = test system: B. subtilis pHT01-cfr; test: MIC determination, broth microdilution; type: cell-based; details: Bacillus subtilis, PHT01CFR
Method: as §4, §6, §3

[10] = test system: Escherichia coli C600recA naI; test: MIC determination, CHL resistant E. coli strains; type: cell-based; details: C600RECANAI
Description: as §1, §3

[11] = test system: Escherichia coli C600rif/pIB55-1; test: MIC determination, CHL resistant E. coli strains; type: cell-based
Description: as §1, §3

[12] = test system: Escherichia coli C600rif/pIP162-1; test: MIC determination, CHL resistant E. coli strains; type: cell-based
Description: as §1, §3

[13] = test system: Escherichia coli J53rif; test: MIC determination, CHL resistant E. coli strains; type: cell-based
Description: as §1, §3

[14] = test system: HEK293T; test: MTT assay growth inhibition; type: cell-based; details: Homo sapiens, HEK-293T, 72 h, read-out: 50% growth inhibition concentration (GI50)
Method: (§7) The cytotoxicity of the tested substances was tested using the MTT (3-(4,5-dimethylthiazol-2-yl)-2,5-diphenyltetrazolium bromide) assay, with some modifications, and 2500 cells per well for the MCF7, HEK293T, and A549 cell lines or 4000 cells per well for the VA-13 cell line were plated in 135 µL of DMEM-F12 media (Gibco, Waltham, MA, USA) in a 96-well plate and incubated in the 5% CO2 incubator for first 16 h, without treatment. Then, 15 µL of media-DMSO solutions of the tested substances was added to the cells (the final DMSO concentrations in the media were 1% or less) and treated cells for 72 h with 25 nM–50 µM (eight dilutions) of our substances (triplicate each), and serial DMSO dilutions and doxorubicin were used as controls. The MTT reagent (Paneco LLC, Moscow, Russia) was then added to cells to a final concentration of 0.5 g/L (10× stock solution in PBS was used) and incubated for 2.5 h at 37 °C in the incubator under an atmosphere of 5% CO2. The MTT solution was then discarded, and 140 µL of DMSO (PharmaMed LLC, Krasnodarsky Krai, Russia) was added. The plates were swayed on a shaker (60 rpm) to dissolve the formazan. The absorbance was measured using a microplate reader (VICTOR X5 Light Plate Reader, PerkinElmer, Waltham, MA, USA) at a wavelength of 565 nm (in order to measure formazan concentration). The results were used to construct a dose-response graph and to estimate the CC50 value.

[15] = test system: MCF7; test: MTT assay growth inhibition; type: cell-based; details: Homo sapiens, 72 h, read-out: 50% growth inhibition concentration (GI50)
Method: as §7

[16] = test system: VA13; test: MTT assay growth inhibition; type: cell-based; details: VA-13, 72 h, read-out: 50% growth inhibition concentration (GI50)
Method: as §7

[17] = test system: A549; test: MTT assay growth inhibition; type: cell-based, human; details: Homo sapiens, A549; MTT, 72 h; read-out: 50% growth inhibition concentration (GI50)
Method: as §7

Compound: CCCCCCCCCC[P+](c1ccccc1)(c1ccccc1)c1ccccc1 [C10-TPP, decyl(triphenyl)phosphonium bromide]
- inhibition of cell growth (inhibition zone) of the reporter strain [1]: inhibit bacterial cell growth
- induction of reporters (Katushka2S: ribosome stalling; RFP: DNA damage) [1]: do not induce either of the two reporters
- MIC [2]: 5 µM
- MIC [3]: 2 µM
- MIC [4]: 2 µM
- MIC [5]: < 2 µM
- MIC [6]: 3 µM
- MIC [7]: 3 µM
- MIC [8]: 1.6 µM
- MIC [9]: 0.8 µM
- MIC [10]: 136 µM
- MIC [11]: 67 µM
- MIC [12]: 93 µM
- MIC [13]: 110 µM
- GI50 [14]: 80 ± 10 nM
- GI50 [15]: 210 ± 30 nM
- GI50 [16]: 270 ± 50 nM
- GI50 [17]: 70 ± 10 nM

Compound: CCCCCCCCCCCCCC[P+](c1ccccc1)(c1ccccc1)c1ccccc1 [C14-TPP, tetradecyl(triphenyl)phosphonium bromide]
- inhibition of cell growth (inhibition zone) of the reporter strain [1]: inhibit bacterial cell growth
- induction of reporters (Katushka2S: ribosome stalling; RFP: DNA damage) [1]: do not induce either of the two reporters
- MIC [2]: 2 µM
- MIC [3]: 1.6 µM
- MIC [4]: 8 µM
- MIC [5]: 4 µM
- MIC [6]: 6 µM
- MIC [7]: 1.6 µM
- MIC [8]: 1.6 µM
- MIC [9]: 0.8 µM
- GI50 [14]: 30 ± 20 nM
- GI50 [15]: 20 ± 10 nM
- GI50 [16]: 70 ± 50 nM
- GI50 [17]: 25 ± 9 nM

Compound: CC(=O)N[C@H](CO)[C@H](O)c1ccc([N+](=O)[O-])cc1 [CAM-Ac, N-acetyl-chloramphenicol amine]
- induction of reporters (Katushka2S: ribosome stalling; RFP: DNA damage) [1]: neither the induction of either of the two reporters

Compound: COc1cccc2c1C(=O)c1c(O)c3c(c(O)c1C2=O)C[C@@](O)(C(=O)CO)C[C@@H]3O[C@H]1C[C@H](N)[C@H](O)[C@H](C)O1 [Doxorubicin, doxorubicin]
- GI50 [14]: 7 ± 1 nM
- GI50 [15]: 40 ± 10 nM
- GI50 [16]: 180 ± 40 nM
- GI50 [17]: 40 ± 10 nM

Compound: CC[C@H]1OC(=O)[C@H](C)[C@@H](O[C@H]2C[C@@](C)(OC)[C@@H](O)[C@H](C)O2)[C@H](C)[C@@H](O[C@@H]2O[C@H](C)C[C@H](N(C)C)[C@H]2O)[C@](C)(O)C[C@@H](C)C(=O)[C@H](C)[C@@H](O)[C@]1(C)O [ERY, erythromycin]
- induction of reporters (Katushka2S: ribosome stalling; RFP: DNA damage) [1]: red pseudocolor rings are observed due to the expression of the fluorescent protein, Katushka2S (but not RFP)

Compound: C[C@H]1COc2c(N3CCN(C)CC3)c(F)cc3c(=O)c(C(=O)O)cn1c23 [LEV, levofloxacin]
- induction of reporters (Katushka2S: ribosome stalling; RFP: DNA damage) [1]: green pseudocolored rings
